Data reported in ChEMBL document CHEMBL4418299, “Compounds useful as csf1 modulators” (2016).

What was measured:
[1] = biological target: Macrophage colony-stimulating factor 1 receptor (Homo sapiens, UniProt P07333); assay: Displacement of kinase tracer 236 from recombinant human His-tagged CSF1R cytoplasmic domain (538 to 910 residues) expressed in baculovirus-infected insect cells measured after 5 hrs by TR-FRET based LanthaScreen assay
[2] = biological target: Vascular endothelial growth factor receptor 2 (Homo sapiens, UniProt P35968); assay: Displacement of kinase tracer 236 from recombinant human His-tagged KDR cytoplasmic domain (789 to 1356 residues) expressed in baculovirus-infected insect cells measured after 5 hrs by TR-FRET based LanthaScreen assay
Vascular endothelial growth factor receptor 2, sequence (P35968 whole entry, the tested form may be a part): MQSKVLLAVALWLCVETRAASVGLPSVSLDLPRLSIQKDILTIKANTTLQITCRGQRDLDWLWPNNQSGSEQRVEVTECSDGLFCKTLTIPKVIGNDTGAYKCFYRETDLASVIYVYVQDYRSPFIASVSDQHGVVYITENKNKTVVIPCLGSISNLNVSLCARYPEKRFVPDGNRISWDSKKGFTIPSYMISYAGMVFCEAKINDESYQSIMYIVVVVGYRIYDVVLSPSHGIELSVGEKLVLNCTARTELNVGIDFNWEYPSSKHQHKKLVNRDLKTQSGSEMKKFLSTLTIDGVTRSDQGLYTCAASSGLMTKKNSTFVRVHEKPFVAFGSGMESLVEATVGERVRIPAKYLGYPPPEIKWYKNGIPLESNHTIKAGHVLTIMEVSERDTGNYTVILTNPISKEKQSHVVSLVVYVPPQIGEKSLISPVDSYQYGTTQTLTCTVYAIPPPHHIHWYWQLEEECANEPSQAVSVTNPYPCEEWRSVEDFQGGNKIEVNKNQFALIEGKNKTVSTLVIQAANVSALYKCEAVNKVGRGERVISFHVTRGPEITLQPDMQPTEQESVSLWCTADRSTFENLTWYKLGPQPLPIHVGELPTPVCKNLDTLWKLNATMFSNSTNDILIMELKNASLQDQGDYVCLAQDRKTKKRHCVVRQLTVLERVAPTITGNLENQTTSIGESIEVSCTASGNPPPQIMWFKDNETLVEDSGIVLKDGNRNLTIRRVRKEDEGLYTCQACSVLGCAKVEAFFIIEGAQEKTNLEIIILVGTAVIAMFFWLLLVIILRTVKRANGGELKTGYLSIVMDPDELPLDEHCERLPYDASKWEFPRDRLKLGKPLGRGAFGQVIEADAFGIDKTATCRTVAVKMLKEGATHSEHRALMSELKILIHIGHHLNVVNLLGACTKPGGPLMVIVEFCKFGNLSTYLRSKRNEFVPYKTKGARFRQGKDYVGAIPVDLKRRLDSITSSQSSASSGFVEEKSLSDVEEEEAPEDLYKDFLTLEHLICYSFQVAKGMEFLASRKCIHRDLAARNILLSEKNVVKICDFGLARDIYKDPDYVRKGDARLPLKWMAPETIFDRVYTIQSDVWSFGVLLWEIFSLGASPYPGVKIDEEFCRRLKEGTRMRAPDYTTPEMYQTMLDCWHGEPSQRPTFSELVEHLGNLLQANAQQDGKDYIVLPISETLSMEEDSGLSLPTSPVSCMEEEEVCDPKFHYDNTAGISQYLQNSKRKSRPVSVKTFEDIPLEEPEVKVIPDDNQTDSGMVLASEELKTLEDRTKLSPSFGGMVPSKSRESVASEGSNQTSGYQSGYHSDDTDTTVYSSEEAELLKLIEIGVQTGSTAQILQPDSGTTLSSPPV

Macrophage colony-stimulating factor 1 receptor, sequence (P07333 whole entry, the tested form may be a part): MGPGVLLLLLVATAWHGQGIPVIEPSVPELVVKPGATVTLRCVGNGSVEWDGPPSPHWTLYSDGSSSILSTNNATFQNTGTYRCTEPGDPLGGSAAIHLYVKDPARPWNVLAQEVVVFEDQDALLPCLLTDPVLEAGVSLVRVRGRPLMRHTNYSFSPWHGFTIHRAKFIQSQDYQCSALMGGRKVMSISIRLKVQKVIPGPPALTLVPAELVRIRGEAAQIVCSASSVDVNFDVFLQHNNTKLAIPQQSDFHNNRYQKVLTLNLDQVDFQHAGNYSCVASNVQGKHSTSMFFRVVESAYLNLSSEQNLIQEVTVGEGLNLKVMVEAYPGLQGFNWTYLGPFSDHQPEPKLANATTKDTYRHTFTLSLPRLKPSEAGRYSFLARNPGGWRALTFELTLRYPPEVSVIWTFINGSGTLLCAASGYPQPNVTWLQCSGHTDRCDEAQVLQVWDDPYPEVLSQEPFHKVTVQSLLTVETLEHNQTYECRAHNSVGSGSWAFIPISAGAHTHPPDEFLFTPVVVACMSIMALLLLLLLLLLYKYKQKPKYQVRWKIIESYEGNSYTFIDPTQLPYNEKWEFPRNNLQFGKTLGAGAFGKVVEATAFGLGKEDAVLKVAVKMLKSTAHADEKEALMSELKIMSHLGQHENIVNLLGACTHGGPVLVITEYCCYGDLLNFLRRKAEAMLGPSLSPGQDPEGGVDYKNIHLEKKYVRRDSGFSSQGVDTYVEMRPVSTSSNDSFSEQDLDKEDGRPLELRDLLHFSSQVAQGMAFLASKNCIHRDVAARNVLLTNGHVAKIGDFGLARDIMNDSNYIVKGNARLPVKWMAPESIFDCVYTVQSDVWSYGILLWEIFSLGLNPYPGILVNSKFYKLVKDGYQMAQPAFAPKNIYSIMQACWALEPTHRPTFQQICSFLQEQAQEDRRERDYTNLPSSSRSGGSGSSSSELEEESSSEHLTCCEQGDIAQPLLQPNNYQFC

| SMILES | IC50 [1] [nM] | IC50 [2] [nM] |
| --- | --- | --- |
| COc1ccc(CC(=O)Nc2ccc(-n3c4c(c5ncnc(N)c53)CCC4)cc2)cc1N(C)C | 10 to 200 | > 200 |
| COc1cc(-n2c3c(c4ncnc(N)c42)CCC3)ccc1NC(=O)Cc1ccc(C2(O)COC2)cc1 | < 10 | – |
| Nc1ncnc2c3c(n(-c4ccc(NC(=O)Cc5ccc(C(F)(F)F)nn5)cc4)c12)CCC3 | 10 to 200 | > 200 |
| Nc1ncnc2c3c(n(-c4ccc(NC(=O)Cc5cccc(OC(F)F)c5)cc4)c12)CCC3 | 10 to 200 | > 200 |
| Nc1ncnc2c3c(n(-c4ccc(NC(=O)Cc5cc(C(F)(F)F)ccn5)cc4)c12)CCC3 | 10 to 200 | > 200 |
| Nc1ncnc2c3c(n(-c4ccc(NC(=O)Cc5ccc(OC(F)(F)F)cc5)cc4)c12)CCC3 | – | > 200 |
| COc1cc(-n2c3c(c4ncnc(N)c42)CCC3)ccc1NC(=O)Cc1ccc(OC(F)(F)F)cc1 | < 10 | > 200 |
| COc1cc(-n2c3c(c4ncnc(N)c42)CCC3)ccc1NC(=O)Cc1cc(C)ccc1F | < 10 | > 200 |
| Cc1ccc(F)c(CC(=O)Nc2ccc(-n3c4c(c5ncnc(N)c53)CCC4)cc2)c1 | < 10 | > 200 |
| Nc1ncnc2c3c(n(-c4ccc(CC(=O)Nc5cc(C(F)(F)F)ccc5F)cc4)c12)COC3 | 10 to 200 | > 200 |
| Nc1ncnc2c3c(n(-c4ccc(NC(=O)Cc5ccc(C(F)(F)F)nc5)cc4)c12)CCC3 | < 10 | > 200 |
| Nc1ncnc2c3c(n(-c4ccc(NC(=O)Cc5ccccc5)cc4)c12)CCC3 | 10 to 200 | > 200 |
| COc1cc(F)c(CC(=O)Nc2ccc(-n3c4c(c5ncnc(N)c53)CCC4)cc2)c(F)c1 | < 10 | 10 to 200 |
| COc1ccc(CC(=O)Nc2ccc(-n3c4c(c5ncnc(N)c53)CCC4)cc2)cc1 | < 10 | > 200 |
| COc1ccc(CC(=O)Nc2ccc(-n3c4c(c5ncnc(N)c53)CCC4)cc2)cn1 | < 10 | > 200 |
| COc1ccc(CC(=O)Nc2ccc(-n3c4c(c5ncnc(N)c53)CCC4)cc2)cc1F | < 10 | > 200 |
| COc1ccc(CC(=O)Nc2ccc(-n3c4c(c5ncnc(N)c53)CCC4)cc2)c(F)c1 | < 10 | > 200 |
| Nc1ncnc2c3c(n(-c4ccc(NC(=O)Cc5ccc(Cl)c(Cl)c5)cc4)c12)CCC3 | < 10 | > 200 |
| COc1ccc(CC(=O)Nc2ccc(-n3c4c(c5ncnc(N)c53)CCC4)cc2)nc1 | 10 to 200 | > 200 |

| SMILES | IC50 [1] [nM] | IC50 [2] [nM] |
| --- | --- | --- |
| Nc1ncnc2c3c(n(-c4ccc(CC(=O)Nc5cc(C(F)(F)F)ccc5F)cc4)c12)CCC3 | < 10 | 10 to 200 |
| COc1cc(-n2c3c(c4ncnc(N)c42)CCC3)ccc1CC(=O)Nc1ccnn1C | > 200 | – |
| COc1cc(-n2c3c(c4ncnc(N)c42)CCC3)ccc1CC(=O)Nc1cnn(C(F)F)c1 | 10 to 200 | – |
| Nc1ncnc2c3c(n(-c4ccc(NC(=O)Cc5ccccc5)c(F)c4)c12)COC3 | > 200 | > 200 |
| COc1cc(CC(=O)Nc2ccc(-n3c4c(c5ncnc(N)c53)COC4)cc2)ccc1C | 10 to 200 | > 200 |
| Nc1ncnc2c3c(n(-c4ccc(NC(=O)Cc5ccc6c(c5)CCC6)cc4)c12)CCC3 | < 10 | > 200 |
| COc1cc(-n2c3c(c4ncnc(N)c42)CCC3)ccc1NC(=O)Cc1ccc(OC)c(C(F)(F)F)c1 | 10 to 200 | > 200 |
| Cc1ccc(F)c(CC(=O)Nc2ccc(-n3c4c(c5ncnc(N)c53)COC4)cc2)c1 | 10 to 200 | > 200 |
| Nc1ncnc2c3c(n(-c4ccc(NC(=O)Cc5ccc(F)cc5Br)cc4)c12)CCC3 | < 10 | > 200 |
| Nc1ncnc2c3c(n(-c4ccc(NC(=O)Cc5cccc(Cl)c5)cc4)c12)CCC3 | < 10 | > 200 |
| COc1ccc(NC(=O)Cc2ccc(-n3c4c(c5ncnc(N)c53)CCC4)cc2OC)nn1 | < 10 | – |
| Nc1ncnc2c3c(n(-c4ccc(NC(=O)CCc5c[nH]c6ccccc56)cc4)c12)CCC3 | > 200 | > 200 |
| Nc1ncnc2c3c(n(-c4ccc(NC(=O)c5c[nH]c6ccccc56)cc4)c12)CCC3 | > 200 | > 200 |
| Nc1ncnc2c3c(n(-c4ccc(NC(=O)Cc5cc(C(F)(F)F)ccc5F)c(F)c4)c12)COC3 | 10 to 200 | > 200 |
| COc1ccc(CC(=O)Nc2ccc(-n3c4c(c5ncnc(N)c53)CCC4)cc2F)c(F)c1 | 10 to 200 | > 200 |
| COc1ccc(CC(=O)Nc2ccc(-n3c4c(c5ncnc(N)c53)COC4)cc2)cc1C | < 10 | > 200 |
| Nc1ncnc2c3c(n(-c4ccc(NC(=O)Cc5ccccc5)cc4F)c12)CCC3 | 47 | > 200 |
| COc1ccc(CC(=O)Nc2ccc(-n3c4c(c5ncnc(N)c53)CCC4)cc2)cc1Br | < 10 | < 10 |
| Nc1ncnc2c3c(n(-c4ccc(NC(=O)Cc5cc(C(F)(F)F)ccc5F)c(F)c4)c12)CCC3 | 10 to 200 | > 200 |
